# Laboratory results taken from US12209081B2 (Katholieke Universiteit Leuven, priority 2020, dated 2025).
# Biological target: mouse TRPM3α2 (mTRPM3) ion channel (Mus musculus (Mouse), UniProt J9SQF3)
# Assay: TRPM3 ion channel driven Ca2+ uptake, Fluo-4 AM assay, mTRPM3alpha2 overexpressing flip-in HEK293 cells stimulated with pregnenolone sulfate
# Format: cell-based
# Conditions: PS 50 μM, cpds 200-299
# How it was run: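 Read-out is Ca2+ influx via Fluo-4 AM fluorescence at 485/535 nm, taken right after seeding ~2000 cells/well onto compound with 50 μM PS. Inhibition computed from RFU between vehicle-stimulated and positive-control-inhibitor wells; cells were mTRPM3α2-overexpressing flip-in HEK293.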
# Sequence of mouse TRPM3α2 (mTRPM3) ion channel (J9SQF3 other isoform, or with tags, fused parts or gaps): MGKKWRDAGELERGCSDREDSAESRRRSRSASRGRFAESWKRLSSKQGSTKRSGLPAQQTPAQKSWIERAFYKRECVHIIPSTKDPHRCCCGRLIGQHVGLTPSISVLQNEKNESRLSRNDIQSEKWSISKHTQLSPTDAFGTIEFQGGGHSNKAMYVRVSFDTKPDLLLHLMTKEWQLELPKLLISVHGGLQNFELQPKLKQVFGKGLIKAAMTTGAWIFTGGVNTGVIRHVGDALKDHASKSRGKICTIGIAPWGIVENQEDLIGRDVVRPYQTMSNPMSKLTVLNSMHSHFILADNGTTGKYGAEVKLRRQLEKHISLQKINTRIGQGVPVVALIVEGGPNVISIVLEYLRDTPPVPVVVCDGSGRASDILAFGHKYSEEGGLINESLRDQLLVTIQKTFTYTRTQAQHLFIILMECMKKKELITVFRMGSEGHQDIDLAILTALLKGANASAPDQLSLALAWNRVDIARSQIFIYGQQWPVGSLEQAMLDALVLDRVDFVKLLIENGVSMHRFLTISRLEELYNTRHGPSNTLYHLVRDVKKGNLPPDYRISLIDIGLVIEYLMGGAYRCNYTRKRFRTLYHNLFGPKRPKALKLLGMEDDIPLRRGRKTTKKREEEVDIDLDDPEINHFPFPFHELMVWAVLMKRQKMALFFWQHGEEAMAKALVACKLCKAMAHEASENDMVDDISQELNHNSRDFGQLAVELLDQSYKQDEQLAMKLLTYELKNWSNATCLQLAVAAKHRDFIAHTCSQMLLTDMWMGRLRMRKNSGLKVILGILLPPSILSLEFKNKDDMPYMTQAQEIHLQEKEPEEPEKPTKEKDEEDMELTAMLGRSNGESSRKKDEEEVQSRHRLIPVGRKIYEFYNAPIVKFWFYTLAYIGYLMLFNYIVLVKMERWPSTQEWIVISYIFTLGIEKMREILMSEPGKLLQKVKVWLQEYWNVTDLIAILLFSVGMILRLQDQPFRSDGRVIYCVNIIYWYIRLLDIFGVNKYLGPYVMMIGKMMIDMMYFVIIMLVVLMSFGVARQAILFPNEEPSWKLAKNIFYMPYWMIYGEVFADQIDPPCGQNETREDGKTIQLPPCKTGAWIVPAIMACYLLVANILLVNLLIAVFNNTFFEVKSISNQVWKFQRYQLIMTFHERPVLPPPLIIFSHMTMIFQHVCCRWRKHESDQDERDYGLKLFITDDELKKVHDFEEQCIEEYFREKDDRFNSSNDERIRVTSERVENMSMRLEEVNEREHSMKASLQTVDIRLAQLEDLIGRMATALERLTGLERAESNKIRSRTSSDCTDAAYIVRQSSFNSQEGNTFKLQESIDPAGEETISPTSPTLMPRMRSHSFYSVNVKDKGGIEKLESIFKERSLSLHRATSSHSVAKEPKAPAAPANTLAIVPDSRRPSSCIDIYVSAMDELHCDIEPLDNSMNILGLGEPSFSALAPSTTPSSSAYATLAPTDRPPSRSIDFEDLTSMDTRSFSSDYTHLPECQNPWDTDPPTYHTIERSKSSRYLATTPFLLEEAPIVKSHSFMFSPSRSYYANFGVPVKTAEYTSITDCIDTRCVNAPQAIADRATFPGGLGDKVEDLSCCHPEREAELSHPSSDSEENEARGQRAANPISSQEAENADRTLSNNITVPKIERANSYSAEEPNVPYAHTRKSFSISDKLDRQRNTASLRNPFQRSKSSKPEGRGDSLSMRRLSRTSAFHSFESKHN
row,Compound,IC50
1,"Cc1ncsc1COc1ccc2oc(C)c(C(=O)N[C@@H](CO)C(N)=O)c2c1 [compound 288, (S)-N-(1-amino-3-hydroxy-1-oxopropan-2-yl)-2-methyl-5-((4-methylthiazol-5-yl)methoxy)benzofuran-3-carboxamide]",< 1 µM
2,"Cc1cc(COc2ccc3oc(C)c(C(=O)N[C@@H](CO)C(N)=O)c3c2)no1 [compound 289, (S)-N-(1-amino-3-hydroxy-1-oxopropan-2-yl)-2-methyl-5-((5-methylisoxazol-3-yl)methoxy)benzofuran-3-carboxamide]",< 1 µM
3,"Cc1oc2ccc(OCc3ncsc3C)cc2c1C(=O)N[C@@H](CO)C(N)=O [compound 290, (S)-N-(1-amino-3-hydroxy-1-oxopropan-2-yl)-2-methyl-5-((5-methylthiazol-4-yl)methoxy)benzofuran-3-carboxamide]",< 1 µM
4,"Cc1ccc(COc2ccc3oc(C)c(C(=O)N[C@@H](CO)C(N)=O)c3c2)cn1 [compound 291, (S)-N-(1-amino-3-hydroxy-1-oxopropan-2-yl)-2-methyl-5-((6-methylpyridin-3-yl)methoxy)benzofuran-3-carboxamide]",< 1 µM
5,"Cc1oc2ccc(OCC3COC3)cc2c1C(=O)N[C@@H](CO)C(N)=O [compound 292, (S)-N-(1-amino-3-hydroxy-1-oxopropan-2-yl)-2-methyl-5-(oxetan-3-ylmethoxy)benzofuran-3-carboxamide]",< 1 µM
6,"Cc1oc2ccc(OCc3ccnn3CC(F)F)cc2c1C(=O)N[C@@H](CO)C(N)=O [compound 295, (S)-N-(1-amino-3-hydroxy-1-oxopropan-2-yl)-5-((1-(2,2-difluoroethyl)-1H-pyrazol-5-yl)methoxy)-2-methylbenzofuran-3-carboxamide]",< 1 µM
7,"Cc1oc2ccc(OCc3cccnc3OC(F)F)cc2c1C(=O)N[C@@H](CO)C(N)=O [compound 296, (S)-N-(1-amino-3-hydroxy-1-oxopropan-2-yl)-5-((2-(difluoromethoxy)pyridin-3-yl)methoxy)-2-methylbenzofuran-3-carboxamide]",< 1 µM
8,"Cc1oc2ccc(OCc3cccnc3N(C)C)cc2c1C(=O)N[C@@H](CO)C(N)=O [compound 297, (S)-N-(1-amino-3-hydroxy-1-oxopropan-2-yl)-5-((2-(dimethylamino)pyridin-3-yl)methoxy)-2-methylbenzofuran-3-carboxamide]",< 1 µM
9,"Cc1nc(C)c(COc2ccc3oc(C)c(C(=O)N[C@@H](CO)C(N)=O)c3c2)s1 [compound 298, (S)-N-(1-amino-3-hydroxy-1-oxopropan-2-yl)-5-((2,4-dimethylthiazol-5-yl)methoxy)-2-methylbenzofuran-3-carboxamide]",< 1 µM
10,"Cc1nc(COc2ccc3oc(C)c(C(=O)N[C@@H](CO)C(N)=O)c3c2)c(C)s1 [compound 299, (S)-N-(1-amino-3-hydroxy-1-oxopropan-2-yl)-5-((2,5-dimethylthiazol-4-yl)methoxy)-2-methylbenzofuran-3-carboxamide]",< 1 µM

# Next, values leading:
row,IC50,Compound
1,< 1 µM,"Cc1oc2ccc(OCc3cccnn3)cc2c1C(=O)N[C@@H](CO)C(N)=O [compound 293, (S)-N-(1-amino-3-hydroxy-1-oxopropan-2-yl)-2-methyl-5-(pyridazin-3-ylmethoxy)benzofuran-3-carboxamide]"
2,< 1 µM,"Cc1oc2ccc(OCc3ccncn3)cc2c1C(=O)N[C@@H](CO)C(N)=O [compound 294, (S)-N-(1-amino-3-hydroxy-1-oxopropan-2-yl)-2-methyl-5-(pyrimidin-4-ylmethoxy)benzofuran-3-carboxamide]"

# Same assay, conditions: PS 50 μM, cpds 300-399
row,Compound,IC50
1,"Cc1oc2ccc(OCc3ncccc3C(F)F)cc2c1C(=O)N[C@@H](CO)C(N)=O [compound 301, (S)-N-(1-amino-3-hydroxy-1-oxopropan-2-yl)-5-((3-(difluoromethyl)pyridin-2-yl)methoxy)-2-methylbenzofuran-3-carboxamide]",< 1 µM
2,"Cc1oc2ccc(OCc3c(F)cnn3C)cc2c1C(=O)N[C@@H](CO)C(N)=O [compound 302, (S)-N-(1-amino-3-hydroxy-1-oxopropan-2-yl)-5-((4-fluoro-1-methyl-1H-pyrazol-5-yl)methoxy) -2-methylbenzofuran-3-carboxamide]",< 1 µM
3,"COC[C@H](NC(=O)c1c(C)oc2ccc(OCc3cnc(C)s3)cc12)C(N)=O [compound 303, (S)-N-(1-amino-3-methoxy-1-oxopropan-2-yl)-2-methyl-5-((2-methylthiazol-5-yl)methoxy)benzofuran-3-carboxamide]",< 1 µM
4,"Cc1ncsc1COc1ccc2oc(C)c(C(=O)N[C@H](C(N)=O)C(C)C)c2c1 [compound 304, (S)-N-(1-amino-3-methyl-1-oxobutan-2-yl)-2-methyl-5-((4-methylthiazol-5-yl)methoxy)benzofuran-3-carboxamide]",< 1 µM
5,"CNC(=O)[C@H](CO)NC(=O)c1c(C)oc2ccc(OCc3cnc(C)s3)cc12 [compound 305, (S)-N-(3-hydroxy-1-(methylamino)-1-oxopropan-2-yl)-2-methyl-5-((2-methylthiazol-5-yl)methoxy)benzofuran-3-carboxamide]",< 1 µM
6,"CNC(=O)[C@H](CO)NC(=O)c1c(C)oc2ccc(OCc3scnc3C)cc12 [compound 306, (S)-N-(3-hydroxy-1-(methylamino)-1-oxopropan-2-yl)-2-methyl-5-((4-methylthiazol-5-yl)methoxy)benzofuran-3-carboxamide]",< 1 µM
7,"O=C(NC1(CO)CCOCC1)c1c(C(F)F)oc2ccc(OCc3cccnc3O)cc12 [compound 311, 2-(difluoromethyl)-N-(4-(hydroxymethyl)tetrahydro-2H-pyran-4-yl)-5-((2-oxo-1,2-dihydropyridin-3-yl)methoxy)benzofuran-3-carboxamide]",< 1 µM
8,"Cc1ncsc1COc1ccc2oc(C3CC3)c(C(=O)NC3(CO)CCOCC3)c2c1 [compound 314, 2-cyclopropyl-N-(4-(hydroxymethyl)tetrahydro-2H-pyran-4-yl)-5-((4-methylthiazol-5-yl)methoxy)benzofuran-3-carboxamide]",< 1 µM
9,"Cc1ncsc1COc1ccc2oc(C)c(C(=O)NCCNS(C)(=O)=O)c2c1 [compound 322, 2-methyl-N-(2-(methylsulfonamido)ethyl)-5-((4-methylthiazol-5-yl)methoxy)benzofuran-3-carboxamide]",< 1 µM
10,"Cc1ncsc1COc1ccc2oc(C)c(C(=O)NCCS(C)(=O)=O)c2c1 [compound 323, 2-methyl-N-(2-(methylsulfonyl)ethyl)-5-((4-methylthiazol-5-yl)methoxy)benzofuran-3-carboxamide]",< 1 µM
11,"Cc1ncsc1COc1ccc2oc(C)c(C(=O)NC3(CO)COC3)c2c1F [compound 328, 4-fluoro-N-(3-(hydroxymethyl)oxetan-3-yl)-2-methyl-5-((4-methylthiazol-5-yl)methoxy)benzofuran-3-carboxamide]",< 1 µM
12,"COc1ncccc1COc1ccc2oc(C)c(C(=O)NC3(CO)CCOCC3)c2c1F [compound 330, 4-fluoro-N-(4-(hydroxymethyl)tetrahydro-2H-pyran-4-yl)-5-((2-methoxypyridin-3-yl)methoxy)-2-methylbenzofuran-3-carboxamide]",< 1 µM
13,"Cc1oc2ccc(OCc3ccnn3CC(F)F)cc2c1C(=O)NC1(CO)CCOCC1 [compound 334, 5-((1-(2,2-difluoroethyl)-1H-pyrazol-5-yl)methoxy)-N-(4-(hydroxymethyl)tetrahydro-2H-pyran-4-yl)-2-methylbenzofuran-3-carboxamide]",< 1 µM

# Second part, the molecule after the results:
row,IC50,Compound
1,< 1 µM,"Cc1oc2ccc(OCc3cccnc3N)cc2c1C(=O)N[C@@H](CO)C(N)=O [compound 300, (S)-N-(1-amino-3-hydroxy-1-oxopropan-2-yl)-5-((2-aminopyridin-3-yl)methoxy)-2-methylbenzofuran-3-carboxamide]"
2,< 1 µM,"CNC(=O)C1(NC(=O)c2c(C)oc3ccc(OCc4cnc(C)s4)cc23)CCC1 [compound 318, 2-methyl-N-(1-(methylcarbamoyl)cyclobutyl)-5-((2-methylthiazol-5-yl)methoxy)benzofuran-3-carboxamide]"
3,< 1 µM,"CNC(=O)C1(NC(=O)c2c(C)oc3ccc(OCc4scnc4C)cc23)CCC1 [compound 319, 2-methyl-N-(1-(methylcarbamoyl)cyclobutyl)-5-((4-methylthiazol-5-yl)methoxy)benzofuran-3-carboxamide]"
4,< 1 µM,"CNC(=O)C1(NC(=O)c2c(C)oc3ccc(OCc4ccccn4)cc23)CCC1 [compound 320, 2-methyl-N-(1-(methylcarbamoyl)cyclobutyl)-5-(pyridin-2-ylmethoxy)benzofuran-3-carboxamide]"
5,< 1 µM,"CNC(=O)CNC(=O)c1c(C)oc2ccc(OCc3scnc3C)cc12 [compound 321, 2-methyl-N-(2-(methylamino)-2-oxoethyl)-5-((4-methylthiazol-5-yl)methoxy)benzofuran-3-carboxamide]"
6,< 1 µM,"CNC(=O)C1(NC(=O)c2c(C)oc3ccc(OCc4scnc4C)cc23)COC1 [compound 324, 2-methyl-N-(3-(methylcarbamoyl)oxetan-3-yl)-5-((4-methylthiazol-5-yl)methoxy)benzofuran-3-carboxamide]"
7,1 to 20 µM,Cc1oc2ccc(OCc3cccnc3C(N)=O)cc2c1C(=O)NC1(CO)CCOCC1 [compound 325]
8,< 1 µM,"Cc1oc2ccc(OCc3cccnc3N3CCC3)cc2c1C(=O)NC1(CO)CCOCC1 [compound 337, 5-((2-(azetidin-1-yl)pyridin-3-yl)methoxy)-N-(4-(hydroxymethyl)tetrahydro-2H-pyran-4-yl)-2-methylbenzofuran-3-carboxamide]"
9,< 1 µM,"Cc1oc2ccc(OCc3cccnc3OC(F)F)cc2c1C(=O)NC1(CO)CCOCC1 [compound 339, 5-((2-(difluoromethoxy)pyridin-3-yl)methoxy)-N-(4-(hydroxymethyl)tetrahydro-2H-pyran-4-yl) -2-methylbenzofuran-3-carboxamide]"
10,< 1 µM,"Cc1oc2ccc(OCc3cccnc3C(F)F)cc2c1C(=O)NC1(CO)COC1 [compound 341, 5-((2-(difluoromethyl)pyridin-3-yl)methoxy)-N-(3-(hydroxymethyl)oxetan-3-yl)-2-methylbenzofuran-3-carboxamide]"
